Results as given in patent publication US20100061928A1, “LABELLED ANALOGUES OF HALOBENZAMIDES AS RADIOPHARMACEUTICALS” (Institut National De La Sante et De La Recherche Medicale …, priority 2006, published 2010).

Assays:
human melanoma (M4Beu) = assay: Cytotoxicity, Hoechst test, M4Beu; conditions: read-out: IC50 M4Beu; M4Beu human melanoma, 48 hours incubation, Hoechst test
Experimental: (§1) The B16 F0, M4Beu and fibroblast lines are cultured in 75 cm^2 dishes comprising 12 ml of Eagle's essential medium with Earle's salts and Glutamax (Gibco-BRL, Paisley, Scotland) supplemented with 10% foetal calf serum, a solution of vitamins at 1× (Gibco), 1 mM sodium pyruvate (Gibco), a solution of nonessential amino acids at 1× (Gibco) and 4 μg/ml of gentamicin (antibiotic).
(§2) The cells are maintained at 37° C. in an incubator under an atmosphere comprising 5% CO2.
(§3) The cells (5×10^3) in 150 μl of culture medium are inoculated in 96-well plates (Nunclon™, Nunc, Roskilde, Denmark). […] The stock solutions (200×) are prepared with DMSO and are then stored at −20° C. 50 μl of a solution comprising stock solution and culture medium are subsequently added to the various wells (taking into account the different dilutions). Each test is carried out in triplicate.
(§4) The amount of cellular DNA is subsequently measured by the Hoechst test. […] The fluorescence obtained is measured using a Fluoroskan 96-well at the excitation wavelength at 360 nm and emission wavelength at 460 nm. Under these conditions, the fluorescence is proportional to the cell biomass in each well. The percentage of survival is defined by the fluorescence in each well (treated) with respect to the fluorescence of the control wells (drug-free), the blanks being subtracted (drug-free and cell-free wells).

[1] = test system: human fibroblast cell lines; assay: Cytotoxicity, Hoechst test, human fibroblasts; conditions: read-out: IC50 Fibroblast; human fibroblasts, 48 hours incubation, Hoechst test
Experimental: as §1, §2, §3, §4

murine melanoma (B16 F0) = assay: Cytotoxicity, Hoechst test, B16 F0; conditions: read-out: IC50 B16; B16 F0 murine melanoma, 48 hours incubation, Hoechst test
Experimental: as §1, §2, §3
The amount of cellular DNA is subsequently measured by the Hoechst test. The plates are then defrosted at ambient temperature for 10 minutes. 100 μl of a 0.01% (w/v) solution of SDS (sodium dodecyl sulphate) in sterile distilled water are subsequently added using a microvolume dispenser. The plates (96 well) are incubated with stirring at ambient temperature for 30 minutes and are then frozen at −80° C. for one hour. The plates are subsequently defrosted at ambient temperature for 20 minutes. […] The plates are then incubated for one hour at ambient temperature, with stirring and with the exclusion of light. The fluorescence obtained is measured using a Fluoroskan 96-well at the excitation wavelength at 360 nm and emission wavelength at 460 nm. Under these conditions, the fluorescence is proportional to the cell biomass in each well. The percentage of survival is defined by the fluorescence in each well (treated) with respect to the fluorescence of the control wells (drug-free), the blanks being subtracted (drug-free and cell-free wells).

`CN(C)CCNC(=O)c1cccc2cc3ccccc3nc12` [DACA, reference compound] was tested, and the IC50 (human melanoma (M4Beu)) was 1.8 µM, the IC50 [1] was 7.1 µM and the IC50 (murine melanoma (B16 F0)) was 0.19 µM.
